One compound from the NIST ThermoML archive (doi:10.1021/je700599z) can be followed below.

For this data set the following is noted: DTA.

Numbers after ± are expanded uncertainties.

For the compound `CCn1cc[n+](C)c1.NCC(=O)[O-]` [1-ethyl-3-methylimidazolium ammonioacetate], the Glass transition temperature was -62.0 ± 3 °C.
